Results from PubChem BioAssay AID1963980 (Molecular Pharmacology Branch, DTP, NCI, 2024).
Several values for one entry are separate records, joined by “and”; a condition that tells them apart may be missing. Equal entries are not always repeated.

System: 475296-252-R-J1-PDC spheroid viability
Assay: Anticancer human tumor 475296-252-R-J1-PDC patient-derived rectal carcinoma cell line growth inhibition [PI3K]
Settings: spheroids with HUVEC and MSC; for viability, T/C: stronger effect = lower value
Outline: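 Combination activity was assessed by viability in multicellular tumor spheroids carrying HUVEC and MSC components. Agents were tested with PI3K inhibitors from a Cmax-based top dose (or 10 microM) downward in half-log increments.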

[1] = curve of first compound, second compound 0.0316 µM
[2] = curve of first compound, second compound 0.1 µM
[3] = curve of first compound, second compound 0.316 µM
[4] = curve of first compound, second compound 1 µM
[5] = second compound 0.0316 µM, first compound 0.0316 µM
[6] = second compound 0.0316 µM, first compound 0.1 µM
[7] = second compound 0.0316 µM, first compound 0.316 µM
[8] = second compound 0.0316 µM, first compound 1 µM
[9] = second compound 0.0316 µM, first compound 3.16 µM
[10] = second compound 0.0316 µM, first compound 10 µM
[11] = second compound 0.1 µM, first compound 0.0316 µM
[12] = second compound 0.1 µM, first compound 0.1 µM
[13] = second compound 0.1 µM, first compound 0.316 µM
[14] = second compound 0.1 µM, first compound 1 µM
[15] = second compound 0.1 µM, first compound 3.16 µM
[16] = second compound 0.1 µM, first compound 10 µM
[17] = second compound 0.316 µM, first compound 0.0316 µM
[18] = second compound 0.316 µM, first compound 0.1 µM
[19] = second compound 0.316 µM, first compound 0.316 µM
[20] = second compound 0.316 µM, first compound 1 µM
[21] = second compound 0.316 µM, first compound 3.16 µM
[22] = second compound 0.316 µM, first compound 10 µM
[23] = second compound 1 µM, first compound 0.0316 µM
[24] = second compound 1 µM, first compound 0.1 µM
[25] = second compound 1 µM, first compound 0.316 µM
[26] = second compound 1 µM, first compound 1 µM
[27] = second compound 1 µM, first compound 3.16 µM
[28] = second compound 1 µM, first compound 10 µM
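Also: spheroids exposed to agents for seven days before readout.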

C[C@@H](NC(=O)c1ncnc(N)c1Cl)c1ncc(C(=O)Nc2cc(C(F)(F)F)c(Cl)cn2)s1 + COc1c(OCCCN2CCOCC2)ccc2c3n(c(=NC(=O)c4cnc(N)nc4)nc12)CCN3
IC50 (curve of first compound, second compound 0.00316 µM): > 10 µM | IC50 (curve of first compound, second compound 0.01 µM): > 10 µM | IC50 [1]: > 10 µM | IC50 [2]: 7.87 µM | IC50 [3]: 9.5 µM | IC50 [4]: 3.76 µM | viability, T/C (second compound 0.00316 µM, first compound 0.0316 µM): 82.4% | viability, T/C (second compound 0.00316 µM, first compound 0.1 µM): 88% | viability, T/C (second compound 0.00316 µM, first compound 0.316 µM): 94.8% | viability, T/C (second compound 0.00316 µM, first compound 1 µM): 101% | viability, T/C (second compound 0.00316 µM, first compound 3.16 µM): 94.5% | viability, T/C (second compound 0.00316 µM, first compound 10 µM): 79.3% | viability, T/C (second compound 0.01 µM, first compound 0.0316 µM): 88% | viability, T/C (second compound 0.01 µM, first compound 0.1 µM): 86.8% | viability, T/C (second compound 0.01 µM, first compound 0.316 µM): 90.4% | viability, T/C (second compound 0.01 µM, first compound 1 µM): 85.9% | viability, T/C (second compound 0.01 µM, first compound 3.16 µM): 101% | viability, T/C (second compound 0.01 µM, first compound 10 µM): 67.3% | viability, T/C [5]: 78.6% | viability, T/C [6]: 83.7% | viability, T/C [7]: 79.7% | viability, T/C [8]: 78.1% | viability, T/C [9]: 80.8% | viability, T/C [10]: 61% | viability, T/C [11]: 74.1% | viability, T/C [12]: 74.1% | viability, T/C [13]: 83.5% | viability, T/C [14]: 69.3% | viability, T/C [15]: 80.1% | viability, T/C [16]: 43.3% | viability, T/C [17]: 62.5% | viability, T/C [18]: 61.8% | viability, T/C [19]: 53.9% | viability, T/C [20]: 67.4% | viability, T/C [21]: 69% | viability, T/C [22]: 32.6% | viability, T/C [23]: 61.9% | viability, T/C [24]: 58.6% | viability, T/C [25]: 74.4% | viability, T/C [26]: 58.9% | viability, T/C [27]: 54.9% | viability, T/C [28]: 23.8%

CC(Nc1ncnc2nc[nH]c12)c1cc2cccc(Cl)c2c(=O)n1-c1ccccc1 (stereo not drawn)
viability, T/C (compound 0.0316 µM): 102% [middle of 8 runs] | viability, T/C (compound 0.1 µM): 96.3% [middle of 8 runs] | viability, T/C (compound 0.316 µM): 90.4% [middle of 8 runs] | viability, T/C (compound 1 µM): 102% [middle of 8 runs] | viability, T/C (compound 3.16 µM): 96.3% [middle of 8 runs] | viability, T/C (compound 10 µM): 94.9% [middle of 8 runs] | IC50 (compound alone, run of 06/13/2023): > 10 µM

CC(Cn1ccc(-c2ccc(C#N)c(Cl)c2)n1)NC(=O)c1cc(C(C)O)[nH]n1 (stereo not drawn)
viability, T/C (compound 0.0316 µM): 105% [middle of 4 runs] | viability, T/C (compound 0.1 µM): 96.9% [middle of 4 runs] | viability, T/C (compound 0.316 µM): 99% (2×) and 93.4% and 120% | viability, T/C (compound 1 µM): 105% [middle of 4 runs] | viability, T/C (compound 3.16 µM): 101% [middle of 4 runs] | viability, T/C (compound 10 µM): 105% [middle of 4 runs] | IC50 (curve of compound): > 10 µM

CC1(C)CCC(CN2CCN(c3ccc(C(=O)NS(=O)(=O)c4ccc(NCC5CCOCC5)c([N+](=O)[O-])c4)c(Oc4cnc5[nH]ccc5c4)c3)CC2)=C(c2ccc(Cl)cc2)C1 + Cc1nc(NC(=O)N2CCCC2C(N)=O)sc1-c1ccnc(C(C)(C)C(F)(F)F)c1
IC50 [1]: > 10 µM | IC50 [2]: > 10 µM | IC50 [3]: > 10 µM | IC50 [4]: > 10 µM | IC50 (curve of first compound, second compound 3.16 µM): > 10 µM | IC50 (curve of first compound, second compound 10 µM): > 10 µM | viability, T/C [5]: 107% | viability, T/C [6]: 90.1% | viability, T/C [7]: 95.3% | viability, T/C [8]: 87.2% | viability, T/C [9]: 95.7% | viability, T/C [10]: 62.5% | viability, T/C [11]: 99.3% | viability, T/C [12]: 85.6% | viability, T/C [13]: 98.9% | viability, T/C [14]: 93% | viability, T/C [15]: 94.2% | viability, T/C [16]: 63.5% | viability, T/C [17]: 99.7% | viability, T/C [18]: 97.5% | viability, T/C [19]: 89.9% | viability, T/C [20]: 84.5% | viability, T/C [21]: 84.2% | viability, T/C [22]: 69% | viability, T/C [23]: 90.8% | viability, T/C [24]: 93.2% | viability, T/C [25]: 97.1% | viability, T/C [26]: 93.3% | viability, T/C [27]: 88.3% | viability, T/C [28]: 73.3% | viability, T/C (second compound 3.16 µM, first compound 0.0316 µM): 83.4% | viability, T/C (second compound 3.16 µM, first compound 0.1 µM): 82% | viability, T/C (second compound 3.16 µM, first compound 0.316 µM): 95.5% | viability, T/C (second compound 3.16 µM, first compound 1 µM): 90.5% | viability, T/C (second compound 3.16 µM, first compound 3.16 µM): 87.5% | viability, T/C (second compound 3.16 µM, first compound 10 µM): 63.3% | viability, T/C (second compound 10 µM, first compound 0.0316 µM): 86.5% | viability, T/C (second compound 10 µM, first compound 0.1 µM): 87.6% | viability, T/C (second compound 10 µM, first compound 0.316 µM): 89.4% | viability, T/C (second compound 10 µM, first compound 1 µM): 89% | viability, T/C (second compound 10 µM, first compound 3.16 µM): 87.3% | viability, T/C (second compound 10 µM, first compound 10 µM): 56.7%
